Data reported in patent US6492365B1, “Microsomal triglyceride transfer protein” (Bristol-Myers Squibb Company, priority 1992, dated 2002).
pIC50: −log10 of the molar value. Structures can show the parent of a compound that is named as a salt.

Molecular target: T1, bovine MTP (Bos taurus, UniProt P55156)
T1 construct: with about 50-200 ng purified MTP in the well of a 96-well plate; from tissue; host or cells: bovine liver
T1 sequence (P55156 12-887): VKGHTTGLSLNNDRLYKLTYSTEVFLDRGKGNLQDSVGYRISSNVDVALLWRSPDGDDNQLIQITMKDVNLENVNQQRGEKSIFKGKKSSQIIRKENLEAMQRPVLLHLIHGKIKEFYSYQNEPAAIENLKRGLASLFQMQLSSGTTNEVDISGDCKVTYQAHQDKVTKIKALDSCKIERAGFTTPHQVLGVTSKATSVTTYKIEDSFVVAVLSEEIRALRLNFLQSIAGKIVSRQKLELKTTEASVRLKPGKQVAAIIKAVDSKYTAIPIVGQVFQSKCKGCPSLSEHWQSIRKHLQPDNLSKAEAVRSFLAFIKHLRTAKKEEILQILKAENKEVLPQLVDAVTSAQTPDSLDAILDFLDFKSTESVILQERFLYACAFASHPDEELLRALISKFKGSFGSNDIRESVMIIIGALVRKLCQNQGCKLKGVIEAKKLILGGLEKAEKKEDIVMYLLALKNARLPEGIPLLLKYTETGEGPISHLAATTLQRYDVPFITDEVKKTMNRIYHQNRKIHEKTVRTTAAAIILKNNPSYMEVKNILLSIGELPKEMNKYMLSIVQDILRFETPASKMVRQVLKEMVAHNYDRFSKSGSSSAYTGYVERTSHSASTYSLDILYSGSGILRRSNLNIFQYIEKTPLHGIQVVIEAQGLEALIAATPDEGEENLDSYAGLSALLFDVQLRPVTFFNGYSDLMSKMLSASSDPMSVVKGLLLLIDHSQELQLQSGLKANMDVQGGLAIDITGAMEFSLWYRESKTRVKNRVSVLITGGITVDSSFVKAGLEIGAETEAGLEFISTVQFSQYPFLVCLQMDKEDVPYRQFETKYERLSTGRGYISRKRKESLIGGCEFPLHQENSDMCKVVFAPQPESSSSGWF
T1 sequence (P05307 21-510 partner): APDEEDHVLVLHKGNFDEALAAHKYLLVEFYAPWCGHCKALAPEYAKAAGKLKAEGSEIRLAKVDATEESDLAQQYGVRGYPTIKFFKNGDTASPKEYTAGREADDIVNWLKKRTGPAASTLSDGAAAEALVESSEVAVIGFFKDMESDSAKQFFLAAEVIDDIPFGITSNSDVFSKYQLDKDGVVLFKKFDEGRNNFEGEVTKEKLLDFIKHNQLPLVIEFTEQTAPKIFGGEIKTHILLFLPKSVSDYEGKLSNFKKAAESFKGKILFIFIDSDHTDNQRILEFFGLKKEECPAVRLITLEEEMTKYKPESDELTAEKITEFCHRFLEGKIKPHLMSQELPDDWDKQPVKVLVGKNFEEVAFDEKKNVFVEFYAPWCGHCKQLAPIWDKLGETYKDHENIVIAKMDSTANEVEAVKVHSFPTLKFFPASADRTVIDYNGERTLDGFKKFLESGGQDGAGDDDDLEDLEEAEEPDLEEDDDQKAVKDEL
Assay: MTP-catalyzed transport of radiolabeled TG from donor SUV to acceptor SUV
Type: biochemical
Settings: for pIC50: 30 minutes at 37° C., read-out: IC50 for inhibition of MTP-catalyzed TG transport from donor SUV to acceptor SUV
Description: (§1) Compound A was dissolved in DMSO and then diluted into 15/40 buffer. Aliquots were added to a lipid transfer assay to bring the compound to the indicated final concentrations. DMSO concentration in the assay never exceeded 2 μL/600 μL, a concentration that was independently determined to have minimal effect on the assay. MTP-catalyzed lipid transport was measured for 30 minutes at 37° C. TG transfer was calculated and compared to a control assay without inhibitor.
as §1, with “Compound B” for “Compound A”
TG transfer activity was measured as the protein-stimulated rate of TG transfer from donor SUV to acceptor SUV. To prepare donor and acceptor vesicles, the appropriate lipids in chloroform were mixed in a 16×125 mm borosilicate glass screw cap tube (Fisher Scientific Co., Pittsburg, Pa., Cat. no. 14-933-1A) and then dried under a stream of nitrogen. Two mL 15/40 buffer (15 mM Tris, pH 7.4, 40 mM sodium chloride, 1 mM EDTA, and 0.02% NaN3) were added to the dried lipids (or 100 μL per assay, which ever is the least volume), a stream of nitrogen was blown over the buffer, then the cap was quickly screwed on to trap a nitrogen atmosphere over the lipid suspension. […]
The ^14C-TG and ^3H-PC remaining in the supernatant were quantitated by scintillation counting. TG transfer was calculated by comparing the ratio of ^14C-TG (transferred from the donor membranes to the acceptor membranes) to ^3H-PC (a marker of acceptor vesicle recovery) present in the supernatant following a transfer reaction to the ratio of total donor ^14C-TG to acceptor [^3H]PC in the assay before the transfer reaction. The percentage of ^14C-TG transfer was calculated as follows: [formula] […]

Structure (SMILES)	pIC50	decrease of TG transfer (at concentrations that inhibited approximately 40% of PC transfer)
O=C1c2ccccc2CN1C1CCN(CCC(c2ccccc2)c2ccccc2)CC1 [compound A, 2-[1-(3,3-diphenylpropyl)-4-piperdinyl]-2,3-dihydro-3-oxo-1H-isoindole hydrochloride]	~6.00	more than 80%
COc1ccccc1N1CCN(CC2CC(=O)c3ccc(F)cc3C2)CC1 (stereo not drawn) [compound B, 1-[3-(6-fluoro-1-tetralanyl)methyl]-4-O-methoxyphenyl piperazine]	5.22 to 5.40	
